Common to all, as to format: in vivo
Series [1] relates to gastric secretion. Kind of series: Anti-secretive activity in the rat with lig. pylorus, iv. Particulars: for ED50: read-out: Activity A: anti-secretive activity ED50.
Series [2] concerns gastric secretion. Nature of the series: Anti-secretive activity in the rat by gastric stimulus, oral. Particulars: oral (Table 1); for ED50: read-out: Activity B: anti-secretive activity ED50.
Procedure: *3 Anti-secretive activity in the rat by gastric stimulus, ED50 mg/k
Series [3] is described as follows: Acute toxicity (DL50) in the mouse. Particulars: iv (Table 1); for LD50: in vivo, read-out: DL50 value. An excerpt: *1 DL50 in the mouse mg/kg iv.
Examples of differences between toxicity (DL50 in
the mouse) by intravenous administration and oral
administration in mg/kg. Variation in therapeutic

For series [4], the system named is gastric secretion. Nature of the series: Comparison of antisecretive activity, rats with tied pylorus, oral aqueous suspension. Particulars: oral. The protocol:
(*)The antisecretive activity is defined as the dose in mg/kg of body
weight of the animal, which reduces the gastric secretion by 50%. The
evaluation is effected by considering the decrease in quantity of secrete
gastric juice as compared with controls. Rats of an average weight of 200
± 20 grams are employed of which the lower part of the stomach at the
level of the pylorus is tied to collect the gastric juice during the
indicated periods. The preparations are administered orally in the form o

Setting [5] is: rat with lig. pylorus, iv (Table 1).

Structures can show the parent of a compound that is named as a salt. Where two headings read alike, the source gives them in different places.

As a reminder, the ED50 is the midpoint of the dose-response relation. In the case of `COC(=O)Cc1ccc(NC(=O)[C@H](Cc2c[nH]c3ccccc23)NC(=O)c2ccccc2)cc1` [Ex.40 (CR418), Methyl-N-benzoyl-L-tryptophyl-p-aminophenylacetate], the values for the ED50 in the series on gastric secretion [1] (setting [5]) and in the series with gastric secretion [2] were 290 mg/kg and 180 mg/kg, respectively. In addition, the LD50 in series [3] came out at 1000 mg/kg.
In the case of `O=C(N[C@@H](Cc1c[nH]c2ccccc12)C(=O)Nc1ccc(C(=O)Oc2ccc(Cl)cc2Cl)cc1)OCc1ccccc1` [Ex.34 (CR432), 2,4-Dichlorophenyl-N-carbobenzoxy-L-tryptophyl-p-aminobenzoate], the median effective dose (ED50) stood at 370 mg/kg in the series on gastric secretion [1] (setting [5]) and 310 mg/kg in the series on gastric secretion [2]. Further, the LD50 in series [3] (iv) amounted to 1000 mg/kg.
As for `O=C(N[C@@H](Cc1c[nH]c2ccccc12)C(=O)O)OCc1ccc(Cl)c(Cl)c1` [Ex.16 (CR469), N-(3,4-dichloro)-carbobenzoxy-L-tryptophane], the median effective dose (ED50) was 137 mg/kg in the series with gastric secretion [1] (Rattus norvegicus, iv) and 104 mg/kg with gastric secretion [2]. Moreover, the LD50 in series [3] (iv) came to 208 mg/kg.
With `O=C(O)Cc1ccc(NC(=O)[C@H](Cc2c[nH]c3ccccc23)NC(=O)OCc2ccccc2)cc1` [Ex.44 (CR435), N-carbobenzoxy-L-tryptophyl-p-aminophenylacetic acid], the ED50 was found to be 370 mg/kg in the series on gastric secretion [1] (setting [5]) and 210 mg/kg with gastric secretion [2]. In addition, the LD50 in series [3] (iv) came to 980 mg/kg.
For `O=C(N[C@@H](Cc1c[nH]c2ccccc12)C(=O)O)c1ccc([N+](=O)[O-])cc1` [Ex.29 (CR502), N-p-nitro-benzoyl-L-tryptophane. C2 H5 OH], the 50% effective dose (ED50) in the series with gastric secretion [1] (setting [5]) came out at 339 mg/kg; in the series with gastric secretion [2], 270 mg/kg. For the same compound, in series [3], the LD50 was 806 mg/kg.
As for `O=C(Cc1ccc(NC(=O)[C@H](Cc2c[nH]c3ccccc23)NC(=O)OCc2ccccc2)cc1)OCc1ccccc1` [Ex.39 (CR419), Benzyl-N-carbobenzoxy-L-tryptophyl-p-aminophenylacetate], the ED50 with gastric secretion [1] (setting [5]) stood at 430 mg/kg; with gastric secretion [2] it was 350 mg/kg. Also, in series [3] (iv), the LD50 amounted to 1000 mg/kg.
The corresponding values for `CCOC(=O)c1ccc(NC(=O)[C@H](Cc2c[nH]c3ccccc23)NC(=O)OCc2ccccc2)cc1` [Ex.33 (CR401), Ethyl-N-carbobenzoxy-L-tryptophyl-p-aminobenzoate] are 470 mg/kg, 320 mg/kg and 1000 mg/kg.
On to `CCc1ccc(COC(=O)N[C@@H](Cc2c[nH]c3ccccc23)C(=O)O)cc1` [Ex.10 (CR500), N-p-ethyl-carbobenzoxy-L-tryptophane], for which the ED50 in the series with gastric secretion [1] (Rattus norvegicus, iv) is 142 mg/kg; in the series with gastric secretion [2], 117 mg/kg. The LD50 in series [3] (iv) worked out at 158 mg/kg.
`O=C(Cc1ccc(Cl)cc1)N[C@@H](Cc1c[nH]c2ccccc12)C(=O)O` [Ex.47 (CR584), N-p-chlorophenylacetyl-L-tryptophane]: the ED50 amounted to 487 mg/kg in the series with gastric secretion [1] (setting [5]) and 270 mg/kg with gastric secretion [2]. Further, in series [3], the LD50 was determined as 545 mg/kg.
As for `O=C(O)c1ccc(NC(=O)[C@H](Cc2c[nH]c3ccccc23)NC(=O)c2ccccc2)cc1` [Ex.42 (CR404), N-benzoyl-L-tryptophyl-p-aminobenzoic acid], the figures for the ED50 in the series with gastric secretion [1] (setting [5]) and with gastric secretion [2] were 284 mg/kg and 220 mg/kg, respectively. For the same compound, the LD50 in series [3] turned out to be 500 mg/kg.
Regarding `O=C(NC(Cc1c[nH]c2ccccc12)C(=O)O)OCc1ccc(Cl)cc1` (racemic) [Ex. 4 (CR463), N-p-chloro-carbobenzoxy-DL-tryptophane], the 50% effective dose (ED50) amounted to 161 mg/kg in the series on gastric secretion [1] (Rattus norvegicus, iv) and 130 mg/kg with gastric secretion [2]. Besides, the LD50 in series [3] (iv) is 217 mg/kg.
With `COC(=O)Cc1ccc(NC(=O)[C@H](Cc2c[nH]c3ccccc23)NC(=O)OCc2ccccc2)cc1` [Ex.38 (CR417), Methyl-N-carbobenzoxy-L-tryptophyl-p-aminophenylacetate], the ED50 in the series with gastric secretion [1] (setting [5]) and in the series on gastric secretion [2] was 300 mg/kg throughout. Also, the LD50 in series [3] (iv) was found to be 1000 mg/kg.
In the case of `O=C(N[C@@H](Cc1c[nH]c2ccccc12)C(=O)O)OCc1cccc(Cl)c1` [Ex. 2 (CR527), N-m-chloro-carbobenzoxy-L-tryptophane], the ED50 in the series with gastric secretion [1] (Rattus norvegicus, iv) was 176 mg/kg; in the series on gastric secretion [2], 147 mg/kg. In addition, the LD50 in series [3] (iv) was 450 mg/kg.
As for `Cc1ccc(C(=O)N[C@H](Cc2c[nH]c3ccccc23)C(=O)O)cc1` [Ex.22 (CR556), N-p-toluyl-D-tryptophane], the ED50 in the series on gastric secretion [1] (Rattus norvegicus, iv) worked out at 354 mg/kg; with gastric secretion [2], 190 mg/kg. For the same compound, the LD50 in series [3] amounted to 365 mg/kg.
Consider `O=C(N[C@@H](Cc1c[nH]c2ccccc12)C(=O)O)c1cccc(Cl)c1` [Ex.30 (CR546), N-m-chloro-benzoyl-L-tryptophane], for which the ED50 came out at 210 mg/kg in the series on gastric secretion [1] (Rattus norvegicus, iv) and 147 mg/kg in the series with gastric secretion [2]. For the same compound, the LD50 in series [3] is 560 mg/kg.
As for `O=C(N[C@@H](Cc1c[nH]c2ccccc12)C(=O)O)OCc1ccc(I)cc1` [Ex. 7 (CR490), N-p-iodo-carbobenzoxy-L-tryptophane], the ED50 with gastric secretion [1] (Rattus norvegicus, iv) stood at 75 mg/kg; with gastric secretion [2] it was 94 mg/kg. In addition, the LD50 in series [3] (iv) came to 166 mg/kg.
Turning to `O=C(N[C@@H](Cc1c[nH]c2ccccc12)C(=O)O)OCc1ccc(Cl)cc1Cl` [Ex.13 (CR470), N-(2,4-dichloro)-carbobenzoxy-L-tryptophane], the 50% effective dose (ED50) stood at 130 mg/kg in the series with gastric secretion [1] (setting [5]) and 97 mg/kg in the series on gastric secretion [2]. In addition, in series [3] (iv), the LD50 is 170 mg/kg.
As for `O=C(N[C@@H](Cc1c[nH]c2ccccc12)C(=O)Nc1ccc(C(=O)Oc2ccccc2)cc1)OCc1ccccc1` [Ex.35 (CR411), Phenyl-N-carbobenzoxy-L-tryptophyl-p-aminobenzoate], the 50% effective dose (ED50) came to 610 mg/kg in the series with gastric secretion [1] (setting [5]) and 460 mg/kg in the series with gastric secretion [2]. The LD50 in series [3] (iv) came to 1000 mg/kg.
On to `O=C(N[C@@H](Cc1c[nH]c2ccccc12)C(=O)O)OCc1cccc(Cl)c1Cl` [Ex.15 (CR499), N-(2,3-dichloro)-carbobenzoxy-L-tryptophane], for which the values for the ED50 in the series on gastric secretion [1] (setting [5]) and in the series with gastric secretion [2] were 100 mg/kg and 60 mg/kg, respectively. The LD50 in series [3] (iv) was 175 mg/kg.
For `CN(C)CCOC(=O)[C@H](Cc1c[nH]c2ccccc12)NC(=O)OCc1ccc(Cl)cc1` [Ex.48 (CR583), Dimethylaminoester of N-p-chlorocarbobenzoxy-L-trytophane hydrochloride], the ED50 in the series with gastric secretion [1] (setting [5]) came to 170 mg/kg; in the series on gastric secretion [2], 121 mg/kg. For the same compound, the LD50 in series [3] (iv) was 210 mg/kg.
Taken in the same sequence, the figures for `O=C(N[C@@H](Cc1c[nH]c2ccccc12)C(=O)O)OCc1cccc2ccccc12` [Ex.31 (CR514), N-(carbo-alpha-naphthyl-methoxy)-L-tryptophane] were 128 mg/kg, 94 mg/kg and 160 mg/kg.
`Cc1ccc(C(=O)NC(Cc2c[nH]c3ccccc23)C(=O)O)cc1` (racemic) [Ex.23 (CR555), N-p-toluyl-DL-tryptophane]: the median effective dose (ED50) was 204 mg/kg in the series with gastric secretion [1] (Rattus norvegicus, iv) and 172 mg/kg in the series with gastric secretion [2]. Besides, the LD50 in series [3] worked out at 340 mg/kg.
On to `N#Cc1ccc(COC(=O)N[C@@H](Cc2c[nH]c3ccccc23)C(=O)O)cc1` [Ex. 8 (CR496), N-p-cyano-carbobenzoxy-L-tryptophane], for which the ED50 in the series on gastric secretion [1] (Rattus norvegicus, iv) stood at 202 mg/kg; in the series with gastric secretion [2], 340 mg/kg. Further, the LD50 in series [3] (iv) stood at 1070 mg/kg.
Turning to `O=C(NC(Cc1c[nH]c2ccccc12)C(=O)O)c1ccccc1Cl` (racemic) [Ex.51 (CR618), N-o-chlorobenzoyl-DL-tryptophane], the 50% effective dose (ED50) is 345 mg/kg with gastric secretion [1] (setting [5]) and 320 mg/kg in the series with gastric secretion [2]. In addition, the LD50 in series [3] came to 1400 mg/kg.
With `O=C(O)c1ccc(C(=O)N[C@@H](Cc2c[nH]c3ccccc23)C(=O)O)cc1` [Ex.27 (CR508), N-p-carboxy-benzoyl-L-tryptophane], the ED50 with gastric secretion [1] (setting [5]) was 514 mg/kg; in the series on gastric secretion [2] it was 406 mg/kg. Besides, the LD50 in series [3] came out at 900 mg/kg.
Turning to “N-p-chlorobenzoyl-L-tryptophyl-phenylacetic acid [Ex.46 (CR589)]”, the “Activity A: anti-secretive activity ED50” value with gastric secretion [1] (setting [5]) is on record as 189 mg/kg. Moreover, the “Activity B: anti-secretive activity ED50” value in the series on gastric secretion [2] was 120 mg/k. Besides, in series [3], the DL50 value is given as 295 mg/kg.
Regarding `O=C(N[C@H](Cc1c[nH]c2ccccc12)C(=O)O)c1ccccc1Cl` [Ex.52 (CR637), N-o-chlorobenzoyl-D-tryptophane], the figures for the ED50 in the series on gastric secretion [1] (setting [5]) and in the series on gastric secretion [2] were 440 mg/kg and 390 mg/kg, respectively. Further, the LD50 in series [3] turned out to be 1530 mg/kg.
Take `O=C(N[C@@H](Cc1c[nH]c2ccccc12)C(=O)O)c1ccc(Br)cc1` [Ex.19 (CR503), N-p-bromo-benzoyl-L-tryptophane]: the median effective dose (ED50) in the series on gastric secretion [1] (Rattus norvegicus, iv) was 111 mg/kg; in the series with gastric secretion [2] it was 85 mg/kg. Besides, the LD50 in series [3] is 360 mg/kg.
With `N#Cc1ccc(C(=O)N[C@@H](Cc2c[nH]c3ccccc23)C(=O)O)cc1` [Ex.24 (CR512), N-p-cyano-benzoyl-L-tryptophane], the ED50 was 500 mg/kg with gastric secretion [1] (Rattus norvegicus, iv) and 360 mg/kg in the series on gastric secretion [2]. Besides, in series [3], the LD50 amounted to 1450 mg/kg.
With `O=C(N[C@@H](Cc1c[nH]c2ccccc12)C(=O)Nc1ccc(C(=O)OCc2ccccc2)cc1)OCc1ccccc1` [Ex.36 (CR430), Benzyl-N-carbobenzoxy-L-tryptophyl-p-aminobenzoate], the ED50 in the series on gastric secretion [1] (setting [5]) came out at 690 mg/kg; in the series with gastric secretion [2], 520 mg/kg. For the same compound, the LD50 in series [3] (iv) was 1000 mg/kg.
Regarding `CCN(CC)CCOC(=O)[C@H](Cc1c[nH]c2ccccc12)NC(=O)c1ccc(C)cc1` [Ex.49 (CR636), Diethylaminoethylester of N-p-toluyl-L-tryptophane oxalate], the ED50 in the series with gastric secretion [1] (setting [5]) came to 160 mg/kg; in the series on gastric secretion [2] it was 120 mg/kg. Further, the LD50 in series [3] is 320 mg/kg.
`Nc1ccc(C(=O)N[C@@H](Cc2c[nH]c3ccccc23)C(=O)O)cc1` [CR 504 - Calcium salt]: the “Antisecretive activity (dose which reduces the gastric secretion by 50%)” value was 1480 mg/kg with gastric secretion [4] (2.5 hrs, 150 min); 1865 mg/kg with gastric secretion [4] (5 hrs, 300 min); more than 2000 mg/kg in the series with gastric secretion [4] (10 hrs, 600 min).
